# From patent EP1825852A1, “ST104P as an anti-angiogenic agent” (Sagittarius Life Science Corp., priority 2006, dated 2007)
# Like-named read-outs stand apart in the source and are kept apart here.
# Assays:
# [1] = tested on: BAEC; assay: Cytotoxicity: cell proliferation assay (crystal violet stain) and morphology; type: cell-based, Bovine
# Experimental: (§1) Fig.1. The cytotoxicity of ST104P in different types of cells. […] After treatment of ST104P at 10-500 µg/ml in DMEM medium containing 10% FCS for 24 h, the morphologies of BAEC and 3T3 cells were monitored under phase contrast microscopy. The pictures were taken at 400× magnification. (B). The dose-dependent effect of ST104P on the proliferation of different cells. After treatment with ST104P at 10-500 µg/ml or PBS for 48 h, the viability of various cells was determined by crystal violet method in an ELISA reader. Each data represent mean ± SD of quadruplicate experiments. Asterisks indicated statistic significance versus control (P<0.001).
# Human umbilical vein endothelial cells (HUVEC; passage 3 to 6) were isolated from umbilical veins and cultured in RPMI 1640 medium (Life Technologies, Gaithersburg, MD) containing 15% fetal calf serum, 20 U/ml porcine heparin (Sigma Chemical Co), and 100 µg/ml endothelial cell growth supplement (Calbiochem; La Jolla, CA). Bovine aortic endothelial (BAEC) cells, 3T3 cells, and LL2 Lewis lung carcinoma cells were cultured with DMEM (Dulbecco's Modified Eagle Medium; Gibco BRL, Rockville, MD) containing 10% fetal calf serum (PAA, Austria), 2 mM glutamine, 100 U/ml penicillin and 100 µg/ml streptomycin (Gibco BRL, Rockville, MD) in 5% CO2 at 37 °C. Human vascular endothelial EA.hy926 cells were cultured in DMEM (Dulbecco's Modified Eagle Medium; Gibco BRL, Rockville, MD) containing 10% fetal calf serum (PAA, Austria), 100 µM sodium hypoxanthine, 0.4 µM aminopterin, 16 µM thymidine (HAT; Gibco BRL, Rockville, MD), 2 mM glutamine, 100 U/ml penicillin and 100 µg/ml streptomycin (Gibco BRL, Rockville, MD) in 5% CO2 at 37 °C.
# The effect of ST104P on the viability of various cells was determined using crystal violet stain assay. Briefly, cells cultured in 96-well plate (2-4 x10^3 cells/well) were treated with various doses of ST104P for 48 h. […] The dye in viable cells was measured by reading the optical density at 590 nm using a scanning multi-well spectrophotometer (ELISA reader; Dynatech Laboratories, Chantilly, VA).
# [2] = tested on: EA.hy926; assay: Cytotoxicity: cell proliferation assay (crystal violet stain); type: cell-based, Human
# Experimental: as §1
# (§2) Human umbilical vein endothelial cells (HUVEC; passage 3 to 6) were isolated from umbilical veins and cultured in RPMI 1640 medium (Life Technologies, Gaithersburg, MD) containing 15% fetal calf serum, 20 U/ml porcine heparin (Sigma Chemical Co), and 100 µg/ml endothelial cell growth supplement (Calbiochem; La Jolla, CA). […]
# (§3) The effect of ST104P on the viability of various cells was determined using crystal violet stain assay. […] The dye in viable cells was measured by reading the optical density at 590 nm using a scanning multi-well spectrophotometer (ELISA reader; Dynatech Laboratories, Chantilly, VA).
# [3] = tested on: 3T3 cells; assay: Cytotoxicity: cell proliferation assay (crystal violet stain) and morphology; type: cell-based
# Experimental: as §1, §2, §3
# [4] = tested on: BAEC; assay: Cell migration assay (Boyden chamber, bFGF as chemoattractant); type: cell-based, Bovine; conditions: incubation 6 h, bFGF 100 ng/ml
# Experimental: Fig. 2. ST104P inhibited the migration of endothelial cells. The effect of ST104p on migration of endothelial cells. BAEC were plated in 6-well plate (1 x 10^6 cells per well) and treated with vasostatin of indicated dose for 12 h. After trypsinization, endothelial cells were applied to top wells in Boyden chamber to initiated migration toward chemoattractant bFGF (100 ng/ml) in the bottom wells. The migrated cells on filter were stained and counted. Each point represents mean ± SEM of triplicate experiments.
# Endothelial cells were treated with ST104P of indicated doses for 6-12 h, harvested by trysinization, collected by centrifugation, resuspended in DMEM media containing 0.1% BSA, and seeded in triplicate for each dose and controls in the upper compartment of the chamber (1.2 x 10^5 cells in 400 µl). The lower compartment was filled with 200 µl of the DMEM media containing 100 ng/ml bFGF (R&D, Minneapolis, MN) as the chemoattractant, or with DMEM media containing 0.1% BSA as the negative control (to evaluate random migration). […] After incubation for 2-4 h in a humidified 5% CO2 atmosphere at 37 °C, cells on the upper side of the filter were removed, and those that had migrated to the lower side were fixed in absolute ethanol, stained with 10% Giemsa solution (Merck, Germany), and counted as a mean ± SD per filter under five different high power fields.
# [5] = tested on: EA.hy926; assay: as above; type: cell-based, Human; conditions: EA.hy926, incubation 6 h, bFGF 100 ng/ml
# [6] = tested on: BAEC; assay: Tube formation assay in Matrigel; type: cell-based, Bovine; conditions: 20-100 µg/ml
# Experimental: (§4) Fig. 3. ST104P abolished the tube formation of endothelial cells. Application of ST104P perturbed tubular network of BAEC or EA.hy9236 cells in Matrigel. Endothelial cells were applied to Matrigel-coated plate in the absence or presence of ST104P. After 8 h, the tubular structures of BAEC cells were monitored and recorded under light microscopy. The pictures were taken at 400× magnification.
# (§5) Matrigel (Becton Dickinson; Bedford, MA) was diluted with cold serum-free medium to 10 mg/ml. Two hundred µl of the diluted solution were added to each well in 24-well plate and allowed to form a gel at 37 °C for 30 min. BAEC or HUVEC (1.5 x 10^5 cells per ml) were initially incubated for 15 min with various doses of ST104P in complete medium. Two hundred µl of the cell suspension (3 x 10^4 cells) were then subsequently added to each well and incubated for 6-8 h at 37 °C in 5% CO2. Under these conditions endothelial cells form delicate networks of tubes that are detectable within 2-3 h and are fully developed after 8-12 h. After incubation with ST104P, the wells were washed and the Matrigel and its endothelial tubes were fixed with 3% paraformaldehyde.
# [7] = tested on: EA.hy926 cells; assay: Tube formation assay in Matrigel; type: cell-based, Human; conditions: 20-100 µg/ml
# Experimental: as §4, §5
# [8] = tested on: MMP-2; assay: MMPs secretion by endothelial cells, gelatin zymography; type: cell-based; conditions: BAEC and EA.hy926, even at dose as low as 10 µg/ml, 24 h, conditioned media
# Experimental: (§6) ST104P decreases the MMPs secretion by endothelial cells. The conditioned media of BAECs or EA.hy926 cells (in 24-well plate at 1x10^4 cells/well) treated with PBS or ST104P (10-500 µg/ml) for […] were collected to analyze the expression of MMPs by gelatin-PAGE zymography.
# (§7) Secretion of MMPs by endothelial cells was assessed by 0.1% gelatin-SDS-PAGE zymography. Briefly, endothelial cells near 80% confluence were washed twice with serum-free media and treated with various doses of vasostatin for 24-48 h: Conditioned media were collected and assayed for protein concentration by Bradford assay. Aliquots of conditioned media were subjected to separation with 10% SDS-PAGE containing 0.1% type A gelatin (Sigma; St. Louis, MO). After electrophoresis, gel was washed twice with 2.5% Triton X-100, incubated in buffer containing 40 mM Tris-HCl, pH 8.0, 10 mM CaCl2, 0.01% sodium azide at 37 °C for 12-24 h, stained with 0.25% Coomassie Blue R-250 in 50% methanol and 10% acetic acid for 1 h, and destained with 10 % acetic acid, 20% methanol. The gelatinolytic regions by MMPs were visualized as white bands in blue background.
# [9] = tested on: MMP-9; assay: as above; type: cell-based; conditions: BAEC and EA.hy926, even at dose as low as 10 µg/ml, 24 h, conditioned media
# Experimental: as §6, §7
# [10] = tested on: Lewis lung carcinoma; type: in vivo, C57BL/6J mice
# Experimental: Fig. 6. Injection of ST104P suppressed tumor growth of Lewis lung carcinoma in mice. The subcutaneous dorsa of mice were implanted with Lewis lung carcinomas. The tumor sizes in mice during treatment with ST104P or control were recorded. […] Each point represents mean ± SEM for ten mice.
# Fig. 7. Injection of ST104P prolonged the survival of tumor-bearing mice. The subcutaneous dorsa of mice were implanted with Lewis lung carcinomas. The tumor sizes in mice during treatment with ST104P or control were recorded. […] Each point represents mean ± SEM for ten mice. The overall survival rates of ten mice in PBS- or ST104P-treated group were recorded.
# Animal study was carried out in the animal facility of Kaohsiung Veterans General Hospital in accordance with institutional guidelines. Male C57BL/6J mice (6- to 8-week-old; Animal Center of National Cheng Kung University, Taiwan) were used. Mice were acclimated and caged in groups of four or less. All mice were fed with a diet of animal chow and water ad libitum. Animals were anesthetized in a methoxyflurane chamber prior to all procedures and were observed until fully recovered. Animals were sacrificed by a lethal dose of methoxyflurane.
# C57BL/6J mice were implanted with Lewis lung carcinomas cells using the techniques described previously (O'Reilly et al., Cell 88, 277-285,1997). Briefly, the LL2 Lewis lung carcinoma cells were resuspended in PBS at the concentration of 2.5 x 10^6 cells per ml and injected into C57B16/J mice (n = 20) with 0.1 ml of the cell suspension to induce tumor. Tumors were measured with a dial-caliper and volumes were determined using the formula width^2 × length × 0.52. After tumor volumes reached 100-200 mm^3, mice were randomized into two groups receiving periodic injection of ST104P (n=10) or saline (n = 10) by subcutaneous injection at a site near tumor. The measurement of tumor size was terminated when mice began to die. In addition, the survival rate of mice in different groups was recorded and analyzed by Kaplan-Mier Survival analysis.
# [11] = in vivo
# [12] = tested on: CAM; assay: Chorioallantoic membrane (CAM) assay
# Experimental: The CAMs in 8-day old chicken embryos were incubated with saline or ST104P (50 or 200 µg in saline) for 48 h. The angiogenesis profiles on CAMs were recorded under dissection microscope.
# The CAM assay was carried out as described previously (Sheu et al., Anticancer Res 18, 4435-4441,1998). Briefly, fertilized White Leghorn chicken eggs were purchased from Taiwan Provincial Research Institute for Animal Health (Hsin-Chu, Taiwan) and incubated at 37 °C with 60% humidity. On day 3, a square window was opened in the shell, and 2 to 3 ml of albumen was removed to allow detachment of the developing CAM. The window was sealed with a glass, and the eggs were returned to the incubator. On day 8, 50-100 µg ST104P in saline was injected onto the top of the CAM. The CAMs were examined daily until day 10-12, when the angiogenic response peaks, and photographed in ovo with a stereomicroscope equipped with Zeiss MC63 camera system (Zeiss, Oberkochen, Germany). The experiments were carried out using 10 eggs per group.
# [13] = molar equivalent given for 500 µg/ml, read-out: IC50
# [14] = proliferation/viability, 48 h, crystal violet
substance,measurement,setting,value
"tetrameric cyclic compound of 4,5-dihydroxynaphthalene-2,7, disulfonic acid linked by methylene bridges [ST104P]",morphologies of cells,"[1]; 10-500 µg/ml, DMEM with 10% FCS, 24 h, phase contrast microscopy",altered the morphologies of endothelial cells
same,IC50,[1]; [13],> 350 µM
same,IC50,[1]; [14],> 500 µg/mL
same,IC50,"[2]; EA.hy926, molar equivalent given for 500 µg/ml, read-out: IC50",> 350 µM
same,IC50,"[2]; proliferation/viability, EA.hy926, 48 h, crystal violet",> 500 µg/mL
same,IC50,[3]; [13],> 350 µM
same,IC50,[3]; [14],> 500 µg/mL
same,IC50 (migration toward chemoattractant bFGF),[4],100 µg/mL
same,IC50 (migration toward chemoattractant bFGF),[5],100 µg/mL
same,tube formation (vessel-like structure in Matrigel),[6],effectively abolished the vessel-like structure
same,tube formation (vessel-like structure in Matrigel),[7],effectively abolished the vessel-like structure
same,secretion of MMP-2 by endothelial cells,[8],potently inhibited the secretion
same,secretion of MMP-9 by endothelial cells,[9],potently inhibited the secretion
same,decrease of average tumor size versus saline-treated groups,"[10]; 100 µg, subcutaneous injection for four times",~ 40%
same,average tumor size,"[10]; 100 µg, subcutaneous injection for four times, saline-treated 4876 ± 670 mm^3, P < 0.05",2620 ± 320 mm^3
same,weight loss or adverse effects,"[10]; mouse, in vivo",no evident weight loss or adverse effects
same,survival of tumor-bearing mice,"[10]; versus vehicle-treated group, P < 0.01, Kaplan-Meier",survived significantly longer
same,tolerability,[11],well tolerated
same,inhibition of angiogenesis,"[12]; 50 µg per CAM, 8-day old chick embryos",50%
same,mortality of chick embryos,"[12]; 200 µg per CAM, 9 out of 10 died versus 0 in PBS-treated group, used as index of angiogenesis inhibition",90%
same,vascular network on CAMs,"[12]; 50 or 200 µg in saline, 48 h, 8-day old chicken embryos",severely destroyed
